Key:
Test in all cases: Test F preemergence test
Settings in all cases: scale 0 to 100
[1] = system: bermudagrass; assay type: in vivo, Cynodon dactylon
Procedure, shortened: (§1)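 Compounds in a non-phytotoxic solvent formulation with surfactant were applied before emergence after sowing, or, for sugarcane, also postemergence. Evaluation was visual, against controls, after 14 to 21 greenhouse days.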

[2] = system: Surinam grass; assay type: in vivo, Brachiaria decumbens
Procedure, shortened: as §1

[3] = system: large crabgrass; assay type: in vivo, Digitaria sanguinalis
Procedure, shortened: as §1

[4] = system: green foxtail; assay type: in vivo, Setaria viridis
Procedure, shortened: as §1

[5] = system: pitted morningglory; assay type: in vivo, Ipomoea lacunosa
Procedure, shortened: as §1

[6] = system: mustard; assay type: in vivo, Brassica nigra
Procedure, shortened: as §1

[7] = system: guineagrass; assay type: in vivo, Panicum maximum
Procedure, shortened: as §1

[8] = system: barnyardgrass; assay type: in vivo, Echinochloa crus-galli
Procedure, shortened: as §1

[9] = system: southern sandbur; assay type: in vivo, Cenchrus echinatus
Procedure, shortened: as §1

[10] = system: prickly sida; assay type: in vivo, Sida spinosa
Procedure, shortened: as §1

[11] = system: Italian ryegrass; assay type: in vivo, Lolium multiflorum
Procedure, shortened: as §1

[12] = system: common purslane; assay type: in vivo, Portulaca oleracea
Procedure, shortened: as §1

[13] = system: common chickweed; assay type: in vivo, Stellaria media
From the text: Seeds of plant species selected from bermudagrass (Cynodon dactylon), Surinam grass (Brachiaria decumbens), large crabgrass (Digitaria sanguinalis), green foxtail (Setaria viridis), goosegrass (Eleusine indica), johnsongrass (Sorghum halepense), kochia (Kochia scoparia), pitted morningglory (Ipomoea lacunosa), purple nutsedge (Cyperus rotundus), common ragweed (Ambrosia elation), mustard (Brassica nigra), guineagrass (Panicum maximum), […] (Paspalum dilatatum), barnyardgrass (Echinochloa crus-galli), southern sandbur (Cenchrus echinatus), common sowthistle (Sonchus oleraceous), prickly […] spinosa), Italian ryegrass (Lolium multiflorum), common purslane (Portulaca oleracea), broadleaf signalgrass (Brachiaria platyphylla), common groundsel (Senecio vulgaris), common chickweed (Stellaria media), Virginia dayflower (Commelina virginica), annual bluegrass (Poa annua), naked crabgrass (Digitaria nuda), […] cochinchinensis), quackgrass (Elytrigia repens), Canada horseweed (Conyza canadensis), field bindweed (Convolvulus arvensis), […] (Bidens bipinnata), common mallow (Malva sylvestris), Russian thistle (Salsola kali), and sugarcane (Saccharum officinarum) were planted and treated preemergence with test chemicals formulated in a non-phytotoxic solvent mixture which included a surfactant. At a different time, sugarcane was treated with postemergence applications of some of the test chemicals formulated in the same manner. Plants were approximately 3- to 4-leaf stage for the postemergence treatments. Treated plants and controls were maintained in a greenhouse for 14 to 21 days, after which time all species were compared to controls and visually evaluated. […] A dash (-) response means no test result.

[14] = system: annual bluegrass; assay type: in vivo, Poa annua
Procedure, shortened: as §1

[15] = system: naked crabgrass; assay type: in vivo, Digitaria nuda
Procedure, shortened: as §1

[16] = system: quackgrass; assay type: in vivo, Elytrigia repens
Procedure, shortened: as §1

[17] = system: field bindweed; assay type: in vivo, Convolvulus arvensis
Procedure, shortened: as §1

[18] = system: common mallow; assay type: in vivo, Malva sylvestris
Procedure, shortened: as §1

Compound: Cn1nc(C(F)(F)F)c(C[S+]([O-])c2ccc(Cl)c[n+]2[O-])c1OC(F)F (stereo not drawn) [Compound 6]
- Plant response rating, Bermudagrass ([1]; 8 g ai/ha, preemergence): 0
- Bermudagrass plant response rating ([1]; 62 g ai/ha, Preemergence): 80
- Plant response rating, Bermudagrass ([1]; Preemergence, 16 g ai/ha): 15
- Plant response rating, Bermudagrass ([1]; Preemergence, 31 g ai/ha): 65
- Plant response rating, Surinam Grass ([2]; 8 g ai/ha, preemergence): 0
- Plant response rating, Surinam Grass ([2]; 16 g ai/ha, preemergence): 60
- Surinam Grass plant response rating ([2]; 62 g ai/ha, Preemergence): 90
- Plant response rating, Surinam Grass ([2]; Preemergence, 31 g ai/ha): 70
- Plant response rating, Crabgrass, Large ([3]; 8 g ai/ha, preemergence): 0
- Crabgrass, Large plant response rating ([3]; 62 g ai/ha, Preemergence): 95
- Plant response rating, Crabgrass, Large ([3]; Preemergence, 16 g ai/ha): 15
- Plant response rating, Crabgrass, Large ([3]; Preemergence, 31 g ai/ha): 70
- Plant response rating, Foxtail, Green ([4]; 8 g ai/ha, preemergence): 0
- Foxtail, Green plant response rating ([4]; 62 g ai/ha, Preemergence): 85
- Plant response rating, Foxtail, Green ([4]; Preemergence, 16 g ai/ha): 65
- Plant response rating, Foxtail, Green ([4]; Preemergence, 31 g ai/ha): 80
- Plant response rating, Morningglory ([5]; 8 g ai/ha, preemergence): 0
- Morningglory plant response rating ([5]; 62 g ai/ha, Preemergence): 75
- Plant response rating, Morningglory ([5]; Preemergence, 16 g ai/ha): 0
- Plant response rating, Morningglory ([5]; Preemergence, 31 g ai/ha): 75
- Plant response rating, Black Mustard ([6]; 8 g ai/ha, preemergence): 0
- Black Mustard plant response rating ([6]; 62 g ai/ha, Preemergence): 100
- Plant response rating, Black Mustard ([6]; Preemergence, 16 g ai/ha): 0
- Plant response rating, Black Mustard ([6]; Preemergence, 31 g ai/ha): 100
- Plant response rating, Guineagrass ([7]; 8 g ai/ha, preemergence): 100
- Guineagrass plant response rating ([7]; 62 g ai/ha, Preemergence): 100
- Plant response rating, Guineagrass ([7]; Preemergence, 16 g ai/ha): 100
- Plant response rating, Guineagrass ([7]; Preemergence, 31 g ai/ha): 100
- Plant response rating, Barnyardgrass ([8]; 8 g ai/ha, preemergence): 0
- Barnyardgrass plant response rating ([8]; 62 g ai/ha, Preemergence): 90
- Plant response rating, Barnyardgrass ([8]; Preemergence, 16 g ai/ha): 70
- Plant response rating, Barnyardgrass ([8]; Preemergence, 31 g ai/ha): 80
- Plant response rating, Sandbur ([9]; 8 g ai/ha, preemergence): 0
- Plant response rating, Sandbur ([9]; 16 g ai/ha, preemergence): 75
- Sandbur plant response rating ([9]; 62 g ai/ha, Preemergence): 100
- Plant response rating, Sandbur ([9]; Preemergence, 31 g ai/ha): 100
- Plant response rating, Prickly Sida ([10]; 8 g ai/ha, preemergence): 0
- Prickly Sida plant response rating ([10]; 62 g ai/ha, Preemergence): 100
- Plant response rating, Prickly Sida ([10]; Preemergence, 16 g ai/ha): 0
- Plant response rating, Prickly Sida ([10]; Preemergence, 31 g ai/ha): 80
- Plant response rating, Ryegrass, Italian ([11]; 8 g ai/ha, preemergence): 0
- Ryegrass, Italian plant response rating ([11]; 62 g ai/ha, Preemergence): 85
- Plant response rating, Ryegrass, Italian ([11]; Preemergence, 16 g ai/ha): 40
- Plant response rating, Ryegrass, Italian ([11]; Preemergence, 31 g ai/ha): 75
- Plant response rating, Purslane ([12]; 8 g ai/ha, preemergence): 10
- Purslane plant response rating ([12]; 62 g ai/ha, Preemergence): 70
- Plant response rating, Purslane ([12]; Preemergence, 16 g ai/ha): 20
- Plant response rating, Purslane ([12]; Preemergence, 31 g ai/ha): 50
- Plant response rating, Chickweed ([13]; 8 g ai/ha, preemergence): 80
- Chickweed plant response rating ([13]; 62 g ai/ha, Preemergence): 100
- Plant response rating, Chickweed ([13]; Preemergence, 16 g ai/ha): 100
- Plant response rating, Chickweed ([13]; Preemergence, 31 g ai/ha): 100
- Plant response rating, Bluegrass ([14]; 8 g ai/ha, preemergence): 0
- Bluegrass plant response rating ([14]; 62 g ai/ha, Preemergence): 90
- Plant response rating, Bluegrass ([14]; Preemergence, 16 g ai/ha): 10
- Plant response rating, Bluegrass ([14]; Preemergence, 31 g ai/ha): 75
- Plant response rating, Crabgrass, Naked ([15]; 8 g ai/ha, preemergence): 0
- Crabgrass, Naked plant response rating ([15]; 62 g ai/ha, Preemergence): 100
- Plant response rating, Crabgrass, Naked ([15]; Preemergence, 16 g ai/ha): 65
- Plant response rating, Crabgrass, Naked ([15]; Preemergence, 31 g ai/ha): 80
- Plant response rating, Quackgrass ([16]; 8 g ai/ha, preemergence): 0
- Quackgrass plant response rating ([16]; 62 g ai/ha, Preemergence): 75
- Plant response rating, Quackgrass ([16]; Preemergence, 16 g ai/ha): 60
- Plant response rating, Quackgrass ([16]; Preemergence, 31 g ai/ha): 65
- Plant response rating, Field Bindweed ([17]; 8 g ai/ha, preemergence): 0
- Field Bindweed plant response rating ([17]; 62 g ai/ha, Preemergence): 50
- Plant response rating, Field Bindweed ([17]; Preemergence, 16 g ai/ha): 50
- Plant response rating, Field Bindweed ([17]; Preemergence, 31 g ai/ha): 50
- Plant response rating, Mallow ([18]; 8 g ai/ha, preemergence): 0
- Mallow plant response rating ([18]; 62 g ai/ha, Preemergence): 90
- Plant response rating, Mallow ([18]; Preemergence, 16 g ai/ha): 0
- Plant response rating, Mallow ([18]; Preemergence, 31 g ai/ha): 30
